Measured values as given in US5112811A, “SDK peptides and therapeutic compositions containing them” (Societe de Conseils de Recherches et d'Applications …, priority 1989, dated 1992).
Residues, ends and D or L forms follow the SMILES beside them.

Experiments:
[1] = test system: Human peripheral mononuclear cells (MNC) stimulated by 0.1% PHA; assay: Stimulation of T lymphocytes proliferation ([3H]thymidine DNA synthesis in PHA-stimulated MNC); assay type: cell-based; settings: for DNA synthesis induced in MNC stimulated by 0.1% PHA: PBL with 0.1% PHA, 3 days; for % stimulation of DNA synthesis in MNC stimulated by 0.1% PHA: versus control (RPMI 1640)
Description: Dilute blood at 1/2 in PBS.
On 15 ml of Ficoll-Hypaque, put 35 ml of dilute blood.
Centrifuge 30 minutes at 1800 rpm, at room temperature.
Take the ring corresponding to mononuclear cells (MNC) back with Pasteur pipette.
Wash twice in PBS (centrifuge for 10 minutes at 1800 rpm).
Bring to 2.10^6 cells/ml with RPMI 1640 "complete" medium +10 % SVF.
PHA-M : Reconstitute a 5 ml bottle lyophylized with 5 ml of "complete" medium. Solution of 100 %. Dilute to obtain a 0.4 % solution.
SDK : Tube […] +4.35 ml "complete" medium. Solution 2.3 10^-4 M.
Then dilute successively 450 μl "medium" +50 μl of dilution.
In 96-well sterilized boxes NUNC :
50 μl of PHA 0.4 % (0.1 % final)
Incubate for 3 days at 37° C. in air/CO* atmosphere 95/5. During the last 24 hours, make a puls of [^3 H] Thymidine : 1 μci/well. Pick up the wells on filters and count with a counter.

[2] = test system: B lymphocytes which secrete IgM immunoglobulines; assay: Humoral response in mice to sheep red blood cells (hemolysis plaque technique, Jerne method); assay type: in vivo, mice of B6D2F1 strain; settings: 3 μg/kg IP; for Number of P.F.C./10^6 cells: read on day +4; for % stimulation of humoral response: versus saline
Description: 6-to-8 week old mice of B6D2F1 strain are sensitized, on day 0, with 0.2 ml of a sheep red blood cells suspension [10^8 cells ] in a saline solution of Hanks.
The Ser-Asp-Lys and the Pro-Ser-Asp-Lys-Pro peptides (3 μg/kg) were injected in solution physiological serum, by IP route, in 0.2 ml, at the appointed time.
On day +4, animals are killed and the number of B lymphocytes which secrete IgM immunoglobulines are counted by the hemolysis plaque technique (Jerne method).
8 mice / batch. 4 determinations / animal made test : 2 experiments / point.

Jurkat T cells = assay: Rosettes protocol: rosette formation between Jurkat T cells and sheep red blood cells; assay type: cell-based
Description: Wash three times the red blood cells (RBC) in RPMI 1640 or RBS or Hanks +antibiotic drugs. Centrifuge for 7 minutes at 3000 rpm.
Put the cells sap in suspension. Count. Bring to 2.10^8 RBC/ml in a solution of RPMI at 20 % of Foetal Calf Serum (FCS) (4 ml formerly adsorbed on 1 ml of RBC sap, 30 minutes on an ice-bath, then centrifuge for 7 minutes at 3000 rpm and recover in sterile conditions).
Take an aliquot of Jurkat T cells in culture. Make a viability with Trypan blue.
Then take the volume of cells required for practical work. Wash the cells three times in RPMI 1640 or PBS or Hanks +antibiotic drugs. Centrifuge for 7 minutes at 900 rpm.
Put the cells sap in suspension. Count. Bring to 2.10^6 Jurkat T cells/ml of solution of RPMI at 20 % of adsorbed FCS.
Inhibiting solution =SDK (2.10^-7 mole).
Peptides to be evaluated are dissolved in RPMI 1640 at the appropriate concentration.
Place, in the tube, 200 μl of the inhibiting solution +100 μl of Jurkat T cells […] in RMPI +FCS 20 %; leave 10 minutes on an ice-bath. Add […] in RPMI +FCS 20 %.
Centrifuge for 5 minutes at 500 rpm. Leave overnight at 4° C.
Set the microscope : ocular :×6 objective :×7
Put carefully back in suspension the cells by tapping. Let it rest for a while.
Add, in the tube, 30 μl of Toluidine blue 1 % (to dye the lymphocytes). Tap gently.
Read 3 Malassex hemocytometer per experimental point.

SMILES | DNA synthesis induced in MNC stimulated by 0.1% PHA ([1]; peptide 3.10^-5 M) | % stimulation of DNA synthesis in MNC stimulated by 0.1% PHA ([1]; peptide 3.10^-5 M) | Number of P.F.C./10^6 cells ([2]; injection at 0 h) | % stimulation of humoral response ([2]; injection at 0 h) | Number of P.F.C./10^6 cells ([2]; injection at +24 h) | Number of P.F.C./10^6 cells ([2]; injection at +48 h) | % stimulation of humoral response ([2]; injection at +48 h) | Number of P.F.C./10^6 cells ([2]; injection at +72 h) | Number of P.F.C./10^6 cells ([2]; injection at -24 h) | % stimulation of humoral response ([2]; injection at -24 h) | % INHIBITION of rosettes (Jurkat T cells; peptide 10^-4 M) | % ROSETTES (Jurkat T cells; peptide 10^-4 M) | % INHIBITION of rosettes (Jurkat T cells; peptide 10^-5 M) | % ROSETTES (Jurkat T cells; peptide 10^-5 M) | % INHIBITION of rosettes (Jurkat T cells; peptide 10^-6 M) | % ROSETTES (Jurkat T cells; peptide 10^-6 M) | % INHIBITION of rosettes (Jurkat T cells; peptide 10^-7 M) | % ROSETTES (Jurkat T cells; peptide 10^-7 M) | % INHIBITION of rosettes (Jurkat T cells; peptide 10^-8 M) | % ROSETTES (Jurkat T cells; peptide 10^-8 M) | further results
NCCCC[C@H](NC(=O)[C@H](CC(=O)O)NC(=O)[C@H](CO)NC(=O)[C@@H]1CCCN1)C(=O)N1CCC[C@H]1C(=O)O [PSDKP, Pro-Ser-Asp-Lys-Pro] (H-PSDKP-OH) | 54 ± 4 cpm × 10^3 /2.10^5 cells | +42% | 915 ± 140 P.F.C./10^6 cells | +99% | 475 ± 82 P.F.C./10^6 cells | 589 ± 101 P.F.C./10^6 cells | +45% | 543 ± 112 P.F.C./10^6 cells | 630 ± 142 P.F.C./10^6 cells | +42% | -37% | 37 ± 7% | -44% | 33 ± 3% | -54% | 27 ± 5% | -24% | 45 ± 6% | -19% | 48 ± 2% | % INHIBITION of rosettes (Jurkat T cells; peptide 10^-9 M): -19%; % ROSETTES (Jurkat T cells; peptide 10^-9 M): 48 ± 4%; % ROSETTES (Jurkat T cells; peptide 10^-10 M): 52 ± 5%
NCCCC[C@H](NC(=O)[C@H](CC(=O)O)NC(=O)[C@@H](N)CO)C(=O)O [SDK, Ser-Asp-Lys] (H-Ser-Asp-Lys-OH) | 56 ± 5 cpm × 10^3 /2.10^5 cells | +60% | 903 ± 133 P.F.C./10^6 cells | +97% | 459 ± 103 P.F.C./10^6 cells | 673 ± 110 P.F.C./10^6 cells | +65% | 1073 ± 348 P.F.C./10^6 cells | 644 ± 170 P.F.C./10^6 cells | +45% | -40% | 38 ± 3% | -28% | 45 ± 4% | -22% | 50 ± 2% | -22% | 49 ± 2% | -36% | 40 ± 2% | DNA synthesis induced in MNC stimulated by 0.1% PHA ([1]; peptide 3.10^-10 M): 52 ± 5 cpm × 10^3 /2.10^5 cells; % stimulation of DNA synthesis in MNC stimulated by 0.1% PHA ([1]; peptide 3.10^-10 M): +30%; % stimulation of humoral response ([2]; injection at +72 h): +134%; % INHIBITION of rosettes (Jurkat T cells; peptide 10^-9 M): -32%; % ROSETTES (Jurkat T cells; peptide 10^-9 M): 43 ± 1%; % INHIBITION of rosettes (Jurkat T cells; peptide 10^-10 M): -32%; % ROSETTES (Jurkat T cells; peptide 10^-10 M): 43 ± 3%; % INHIBITION of rosettes (Jurkat T cells; peptide 10^-11 M): -36%; % ROSETTES (Jurkat T cells; peptide 10^-11 M): 40 ± 1%; % INHIBITION of rosettes (Jurkat T cells; peptide 10^-12 M): -30%; % ROSETTES (Jurkat T cells; peptide 10^-12 M): 44 ± 3%; % INHIBITION of rosettes (Jurkat T cells; peptide 10^-13 M): -19%; % ROSETTES (Jurkat T cells; peptide 10^-13 M): 51 ± 7%; % INHIBITION of rosettes (Jurkat T cells; peptide 10^-14 M): -14%; % ROSETTES (Jurkat T cells; peptide 10^-14 M): 55 ± 2%; % ROSETTES (Jurkat T cells; peptide 10^-15 M): 63 ± 4%
